The values that follow come from patent US10278957B2, “Opioid agonist peptides and uses thereof” (Protagonist Therapeutics, Inc., priority 2017, dated 2019).

A word on the EC50: it is the midpoint of the concentration-response curve. Higher therefore signals weaker potency.

One assay addresses T1, μ-opioid receptor (MOR) (Homo sapiens, UniProt P35372).
T1 construct: host or cells: cAMP Hunter CHO-K1 OPRM1 Gαi cell line
The experiment in a line: MOR agonist cAMP assay (HitHunter cAMP, forskolin-stimulated). In kind it is cell-based. As for the experimental part:
(§1) The HitHunter® cAMP chemiluminescent assay kit (DiscoveRx, Cat# 90-0075 SM25) was used to detect cAMP production in cAMP Hunter™ Gαi cell lines over expressing either Human-ORPM1 (Discoverx, Catalog# 95-0107C2) or Human-ORPD1 (DiscoveRx, Catalog# 95-0108C2). Opioid agonist binding to the Gαi receptors inhibits the intracellular cAMP accumulation induced by forskolin, which activates adenylate cyclase and increases intracellular levels of cAMP.
(§2) Cells were cultured in media consisting of Ham's F-12 Nutrient Mix (Life Technologies, Catalog#31765035), 10% FBS (Life Technologies, Catalog# 16140-071), 4 mM GlutaMAX (Life Technologies, Catalog#35050-061), […] (Life Technologies), 100 ug/ml of Penn-Strep (Life Technologies) and 0.5 mg/ml Geneticin (Life Technologies, Catalog# 10131-027). The cultures were maintained at 37° C. under 5% CO2.
(§3) In preparation for cAMP assay, the cells were seeded at a density of 300,000 cells/ml in 100 ul of media/well in 96-well microplate. Wells that were designated for cAMP standards were left empty.
(§4) Opioid agonist serial dilutions were prepared in separate dilution plate (11-point series of 3× (3-fold) dilution) in Cell Assay buffer, including 3× forskolin for Gαi target. For Hunter CHO-K1 OPRM1 or CHO-K1 OPRD1 Gαi Cell Lines, the final forskolin concentration was 20 uM.
(§5) 15 ul of each 3× opioid agonist serial dilution was added in the presence of forskolin in duplicate to the designated wells. The final concentration of each dilution was at 3× of the final screening concentration. The assay plate was incubated for 30 min, at 37° C. under 5% CO2.
(§6) Cellular cAMP concentrations were measured using the HitHunter cAMP Assay kit following the manufacturer's protocol. HitHunter cAMP assay is a gain-of-signal competitive immunoassay based on Enzyme Fragment Complementation (EFC) technology. The kit uses β-galactosidase (β-gal) enzyme split into Enzyme Donor (ED) and Enzyme Acceptor (EA). The cellular cAMP and ED-labelled cAMP compete for anti-cAMP antibody. […] When cellular cAMP level is high, it competes for the anti-cAMP antibody, thereby releasing ED-cAMP to complement with EA to produce a luminescent signal. The amount of signal is directly proportional to the amount of cAMP in cells and can be quantified using cAMP standards. The assay plates were read using a PerkinElmer Envision instrument to detect the chemiluminescence signal in each well (luminescence reader at 0.1 to 1 second/well). Data analysis was performed using Graphpad Prism 7.EC50 was calculated by nonlinear regression, using the four-parameter hill equation.
In general terms: Cyclic AMP is a second messenger, typically raised through Gs and lowered through Gi signalling.

Another assay concerns the target T2, δ-opioid receptor (DOR) (Homo sapiens, UniProt P41143).
T2 construct: host or cells: cAMP Hunter CHO-K1 OPRD1 Gαi cell line
The experiment in a line: DOR agonist cAMP assay (HitHunter cAMP, forskolin-stimulated). In kind it is cell-based. As for the experimental part:
as §1, §2, §3, §4, §5, §6

Square brackets hold non-standard residues; d marks the D form. Peptide text beside a SMILES is read from it. Phe(3,4-(OMe)2) = COc1ccc(C[C@H](N)C(=O)O)cc1OC; Bip = N[C@@H](Cc1ccc(-c2ccccc2)cc1)C(=O)O; Dip = N[C@H](C(=O)O)C(c1ccccc1)c1ccccc1; Phe(4-F) = N[C@@H](Cc1ccc(F)cc1)C(=O)O; Dmt = Cc1cc(O)cc(C)c1C[C@H](N)C(=O)O; hPhe = N[C@@H](CCc1ccccc1)C(=O)O; αMeF = C[C@](N)(Cc1ccccc1)C(=O)O; β3hF = N[C@H](CC(=O)O)Cc1ccccc1; N(octyl)Gly = CCCCCCCCNCC(=O)O; Nle = CCCC[C@H](N)C(=O)O; Sar = CNCC(=O)O

T2 sequence (P41143 whole entry): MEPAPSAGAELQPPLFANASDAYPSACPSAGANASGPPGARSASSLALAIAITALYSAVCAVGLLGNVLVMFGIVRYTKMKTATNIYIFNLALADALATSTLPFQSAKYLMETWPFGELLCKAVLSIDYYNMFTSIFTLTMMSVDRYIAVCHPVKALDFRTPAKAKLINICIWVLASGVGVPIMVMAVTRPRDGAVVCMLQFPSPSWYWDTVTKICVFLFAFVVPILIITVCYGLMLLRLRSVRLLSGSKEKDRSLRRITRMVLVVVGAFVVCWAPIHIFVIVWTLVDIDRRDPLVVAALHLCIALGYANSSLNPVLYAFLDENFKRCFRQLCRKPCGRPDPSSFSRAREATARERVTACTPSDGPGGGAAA
T1 sequence (P35372 whole entry): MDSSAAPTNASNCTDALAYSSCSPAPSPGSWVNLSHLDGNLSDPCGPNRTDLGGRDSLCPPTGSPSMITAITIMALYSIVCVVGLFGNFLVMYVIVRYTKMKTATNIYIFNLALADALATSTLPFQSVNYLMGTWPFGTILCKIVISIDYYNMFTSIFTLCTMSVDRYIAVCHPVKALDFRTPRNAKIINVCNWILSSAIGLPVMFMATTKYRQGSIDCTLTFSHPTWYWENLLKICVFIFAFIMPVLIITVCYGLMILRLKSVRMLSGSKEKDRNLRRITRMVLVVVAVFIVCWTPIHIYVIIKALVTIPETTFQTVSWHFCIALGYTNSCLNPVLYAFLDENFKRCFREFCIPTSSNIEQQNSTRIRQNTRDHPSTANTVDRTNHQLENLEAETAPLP

For `Cc1cc(C(N)=O)cc(C)c1C[C@H](N)C(=O)N[C@H](C)C(=O)NCC(=O)N[C@H](CC(=O)N(C)[C@@H](CC1CCCCC1)C(=O)O)Cc1ccccc1` [compound 98], the EC50 on μ-opioid receptor (MOR) and at δ-opioid receptor (DOR) was 1 to 10 nM each time.
Consider `C[C@@H](NC(=O)[C@@H](N)Cc1c[nH]c2ccc(O)cc12)C(=O)NCC(=O)N[C@H](CC(=O)N(C)CC(N)=O)Cc1ccccc1` [compound 63], for which the EC50 at μ-opioid receptor (MOR) and on δ-opioid receptor (DOR) was 50 to 200 nM throughout.
Take `Cc1cc(O)cc(C)c1C[C@H](N)C(=O)N[C@H](CCCNC(=N)N)C(=O)N[C@@H](CCc1ccccc1)C(=O)N(C)CCC(=O)O` [compound 12]: the EC50 on μ-opioid receptor (MOR) and on δ-opioid receptor (DOR) was less than 1 nM in each case.
On to `CC[C@H](C)[C@@H](C(=O)O)N(C)C(=O)C[C@H](Cc1ccccc1)NC(=O)CNC(=O)[C@@H](CCC(=O)O)NC(=O)[C@@H](N)Cc1c(C)cc(O)cc1C` [compound 186], for which the EC50 is 1 to 10 nM on μ-opioid receptor (MOR) and less than 1 nM at δ-opioid receptor (DOR).
In the same order, the values of `Cc1cc(O)cc(C)c1C[C@H](N)C(=O)N[C@H](CCCNC(=N)N)C(=O)N[C@@H](Cc1ccccc1)C(=O)N(C)[C@@H](CCCCN)C(N)=O` [compound 5] are less than 1 nM and more than 200 nM.
Turning to `CCCC[C@@H](C(=O)O)N(C)C(=O)C[C@H](Cc1ccc(I)cc1)NC(=O)CNC(=O)[C@@H](C)NC(=O)[C@@H](N)Cc1c(C)cc(O)cc1C` [compound 150], the EC50 at μ-opioid receptor (MOR) and at δ-opioid receptor (DOR) was less than 1 nM in each case.
On to `Cc1cc(O)cc(C)c1C[C@H](N)C(=O)N[C@H](CCCNC(=N)N)C(=O)N[C@@H](Cc1ccc(F)cc1)C(=O)N(C)CC(N)=O` [compound 19] (H-[Dmt][dR][Phe(4-F)][Sar]-NH2), for which the EC50 was less than 1 nM on μ-opioid receptor (MOR) and 1 to 10 nM on δ-opioid receptor (DOR).
`CCCC[C@H](NC(=O)[C@H](CCc1ccccc1)NC(=O)CNC(=O)[C@@H](C)NC(=O)[C@@H](N)Cc1c(C)cc(O)cc1C)C(N)=O` [compound 49]: on μ-opioid receptor (MOR), the EC50 was less than 1 nM.
For `COc1ccc(C[C@H](NC(=O)[C@H](Cc2ccccc2)NC(=O)[C@@H](CCCNC(=N)N)NC(=O)[C@@H](N)Cc2c(C)cc(O)cc2C)C(N)=O)cc1OC` [compound 17] (H-[Dmt][dR]F[Phe(3,4-(OMe)2)]-NH2), the EC50 on δ-opioid receptor (DOR) was in the range of 1 to 10 nM.
`CCCCCCCCN(CC(N)=O)C(=O)C[C@H](Cc1ccccc1)NC(=O)CNC(=O)[C@@H](C)NC(=O)[C@@H](N)Cc1c(C)cc(O)cc1C` [compound 115] came in with an EC50 on δ-opioid receptor (DOR) of 10 to 50 nM.
`CCCC[C@@H](C(=O)O)N(C)C(=O)[C@@H](Cc1ccccc1)N(C)C(=O)CNC(=O)[C@@H](C)NC(=O)[C@@H](N)Cc1c(C)cc(O)cc1C` [compound 154]: the EC50 on μ-opioid receptor (MOR) was less than 1 nM.
On to `COc1ccc(C[C@H](NC(=O)[C@@H](CCCNC(=N)N)NC(=O)[C@@H](N)Cc2c(C)cc(O)cc2C)C(=O)N(C)CC(N)=O)cc1OC` [compound 25] (H-[Dmt][dR][Phe(3,4-(OMe)2)][Sar]-NH2), for which the EC50 on δ-opioid receptor (DOR) was more than 200 nM.
At δ-opioid receptor (DOR), `Cc1cc(O)cc(C)c1C[C@H](N)C(=O)N(C)[C@@H](CCCNC(=N)N)C(=O)NCC(=O)N[C@H](CC(=O)N(C)CC(N)=O)Cc1ccccc1` [compound 91] had an EC50 of 50 to 200 nM.
Regarding `Cc1cc(O)cc(C)c1C[C@H](N)C(=O)N[C@H](CCCNC(=N)N)C(=O)N[C@H](C(=O)N(C)CC(N)=O)C(c1ccccc1)c1ccccc1` [compound 26] (H-[Dmt][dR][Dip][Sar]-NH2), the concentration giving a half-maximal response (EC50) at δ-opioid receptor (DOR) is more than 200 nM.
At δ-opioid receptor (DOR), `Cc1cc(O)cc(C)c1C[C@H](N)C(=O)N[C@H](CCCNC(=N)N)C(=O)N[C@@H](Cc1ccccc1)C(=O)N[C@@H](CCc1ccccc1)C(N)=O` [compound 18] (H-[Dmt][dR]F[hPhe]-NH2) gave an EC50 of 1 to 10 nM.
In turn, `Cc1cc(O)cc(C)c1C[C@H](N)C(=O)N[C@H](C)C(=O)NCC(=O)N[C@H](CC(=O)N(CC(N)=O)CC1CCCCC1)Cc1ccccc1` [compound 119] displayed an EC50 at δ-opioid receptor (DOR) of 1 to 10 nM.
On the same count and under the same terms, the value for `Cc1cc(O)cc(C)c1C[C@H](N)C(=O)N[C@H](C)C(=O)NCC(=O)N[C@@H](Cc1ccc(Cl)c(Cl)c1)C(=O)NCC(N)=O` [compound 41] was less than 1 nM.
Same read-out and setting: the value for `Cc1cc(O)cc(C)c1C[C@H](N)C(=O)N[C@H](CCCNC(=N)N)C(=O)N[C@@H](Cc1ccc(-c2ccccc2)cc1)C(=O)N(C)CC(N)=O` [compound 23] (H-[Dmt][dR][Bip][Sar]-NH2) was less than 1 nM; that for `Cc1cc(O)cc(C)c1C[C@H](N)C(=O)N[C@H](C)C(=O)NCC(=O)N1Cc2ccccc2C[C@H]1C(=O)NCC(N)=O` [compound 40] was 10 to 50 nM.
On the same count and under the same terms, the value for `CCCCCCCCN(CC(N)=O)C(=O)[C@H](Cc1ccccc1)NC(=O)[C@@H](CCCNC(=N)N)NC(=O)[C@@H](N)Cc1c(C)cc(O)cc1C` [compound 27] (H-[Dmt][dR]F[N(octyl)Gly]-NH2) was 50 to 200 nM.
On δ-opioid receptor (DOR), `Cc1cc(O)cc(C)c1C[C@H](N)C(=O)N[C@H](CCCNC(=N)N)C(=O)N[C@@H](Cc1ccccc1)C(=O)N[C@@](C)(Cc1ccccc1)C(N)=O` [compound 15] (H-[Dmt][dR]F[αMeF]-NH2) had an EC50 of 1 to 10 nM.
Compound `C[C@@H](NC(=O)[C@@H](N)Cc1ccc(O)cc1)C(=O)NCC(=O)N[C@H](CC(=O)N(C)CC(N)=O)Cc1ccccc1` [compound 62] had an EC50 on δ-opioid receptor (DOR) of 1 to 10 nM.
Still for that read-out and setting: the value for `Cc1cc(O)cc(C)c1C[C@H](N)C(=O)N[C@H](C)C(=O)NCC(=O)N[C@@H](CCc1ccccc1)C(=O)N(C)CC(N)=O` [compound 47] was 1 to 10 nM; that for `Cc1cc(O)cc(C)c1C[C@H](N)C(=O)N[C@H](C)C(=O)NCC(=O)N[C@@H](Cc1ccc(C#N)cc1)C(=O)NCC(N)=O` [compound 39] was less than 1 nM.
The same measure, in the same setting: the same measure for `Cc1cc(O)cc(C)c1C[C@H](N)C(=O)N[C@H](CCCNC(=N)N)C(=O)NCC(=O)N[C@H](C(N)=O)C(c1ccccc1)c1ccccc1` [compound 33] (H-[Dmt][dR]G[Dip]-NH2): more than 200 nM.
For the compound `Cc1cc(C(N)=O)cc(C)c1C[C@H](N)C(=O)N[C@H](CC(=O)O)C(=O)NCC(=O)N[C@H](CC(=O)N(C)CC(N)=O)Cc1ccccc1` [compound 77], at δ-opioid receptor (DOR), the EC50 was less than 1 nM.
Still for that read-out and setting: the same measure for `Cc1cc(O)cc(C)c1C[C@H](N)C(=O)N[C@H](C)C(=O)N[C@H](C(=O)N[C@H](CC(=O)N(C)CC(N)=O)Cc1ccccc1)C(C)C` [compound 69] (H-[Dmt][dA]V[β3hF][Sar]-NH2): 50 to 200 nM; for `CCCC[C@H](NC(=O)[C@H](Cc1ccccc1)NC(=O)[C@@H](CCCN=C(N)N)NC(=O)[C@@H](N)Cc1c(C)cc(O)cc1C)C(N)=O` [compound 28] (H-[Dmt][dR]F[Nle]-NH2): 10 to 50 nM.
The same measure, in the same setting: the same measure for `CCCCCN(CC(N)=O)C(=O)C[C@H](Cc1ccccc1)NC(=O)CNC(=O)[C@@H](C)NC(=O)[C@@H](N)Cc1c(C)cc(O)cc1C` [compound 124]: less than 1 nM; for `Cc1cc(O)cc(C)c1C[C@H](N)C(=O)N[C@H](CCCNC(=N)N)C(=O)NCC(=O)N[C@@H](Cc1c[nH]c2ccccc12)C(N)=O` [compound 34] (H-[Dmt][dR]GW-NH2): 10 to 50 nM.
Still for that read-out and setting: the same measure for `CCCC[C@H](NC(=O)[C@H](Cc1c[nH]c2ccccc12)NC(=O)[C@@H](CCCNC(=N)N)NC(=O)[C@@H](N)Cc1c(C)cc(O)cc1C)C(N)=O` [compound 31] (H-[Dmt][dR]W[Nle]-NH2): 10 to 50 nM; for `Cc1cc(O)cc(C)c1C[C@H](N)C(=O)N[C@H](CCCNC(=N)N)C(=O)N[C@@H](Cc1ccccc1)C(=O)N[C@H](C(N)=O)C(C)C` [compound 30] (H-[Dmt][dR]FV-NH2): 1 to 10 nM.
